The results in this text go back to paper PMC6060096, “Novel 3D Structure Based Model for Activity Prediction and Design of Antimicrobial Peptides” (Scientific Reports, 2018).

≈ marks a conversion by molar mass, not a printed value. Residues, ends and D or L forms follow the SMILES beside them.

Holding throughout (format): cell-based
Assay [1] deals with Enterococcus faecalis (clinical strains). Briefly: MIC, broth microdilution. To be noted: LB broth, ~1.0 × 10^5 CFU/ml, 0.5 to 512.0 μg/ml, 37 °C, 24 h, OD600, performed three times. How it is done: (§1) The experimentally determined strains are as follows: Listeria monocytogenes (ATCC 19115), Staphylococcus aureus (CMCC(B)26003), Bacillus subtilis (CMCC(B)63501), Escherichia coli (CMCC(B) 44102), Pseudomonas aeruginosa (CMCC(B)10104), Enterococcus faecalis (clinical strains) from China Pharmaceutical University Microbiology Laboratory. Minimal inhibitory concentration(MIC) of peptides were determined using broth microdilution method. Two-fold serial dilutions of eight peptides were prepared from 1024.0 to 1.0 μg/ml in 96-well microtiter plate (100.0 μl of each well). Then peptide dilutions were mixed with LB broth and bacterial culture (100.0 μl) containing 2.0 × 10^5 CFU/ml. Final peptide concentrations ranged from 0.5 to 512.0 μg/ml. The final bacterial concentration was approximately 1.0 × 10^5 CFU/ml. Positive controls were incubated with Cefuroxime instead of peptide, at concentrations from 0.5 to 512.0 μg/ml. Negative and blank controls were incubated, respectively, with sterile deionized water or only LB broth. Microtiter plates were incubated at 37 °C for 24 h under normal atmospheric conditions. OD600 was measured using a microplate spectrophotometer (Multiskan GO, Thermo Scientific, USA). MIC was recorded as the endpoint where no difference of OD600 could be detected with respect to the blank LB broth. MIC assays were performed three times for all strains.
In general terms: Dilution methods test growth across graded concentrations, often in twofold steps.

In assay [2] the test system is Staphylococcus aureus (CMCC(B)26003). Briefly: microbe, parasite or virus in culture. The procedure: as §1
The subject of assay [3] is Bacillus subtilis (CMCC(B)63501). The assay can be described thus: microbe, parasite or virus in culture. How it is done: as §1
Assay [4] concerns Listeria monocytogenes (ATCC 19115). The assay can be described thus: microbe, parasite or virus in culture. How it is done:
as §1

Assay [5] relates to Pseudomonas aeruginosa (CMCC(B)10104). The assay can be described thus: microbe, parasite or virus in culture. The procedure:
as §1

Assay [6] concerns Escherichia coli (CMCC(B) 44102). The assay can be described thus: microbe, parasite or virus in culture. The procedure: as §1

Regarding `CO/N=C(\C(=O)N[C@@H]1C(=O)N2C(C(=O)O)=C(COC(N)=O)CS[C@H]12)c1ccco1` [Cefuroxime, reference compound], the MIC is 16 mg/L (≈ 37.7 µM) in assay [1] (Enterococcus faecalis); 4 mg/L (≈ 9.43 µM) in assay [2] (Staphylococcus aureus, CMCC(B)26003, broth microdilution, LB broth, ~1.0 × 10^5 CFU/ml, 0.5 to 512.0 μg/ml, 37 °C, 24 h, OD600, performed three times); at most 0.5 mg/L in assay [3] (Bacillus subtilis, CMCC(B)63501, broth microdilution, LB broth, ~1.0 × 10^5 CFU/ml, 0.5 to 512.0 μg/ml, 37 °C, 24 h, OD600, performed three times); 4 mg/L (≈ 9.43 µM) in assay [4] (Listeria monocytogenes, ATCC19115, ATCC 19115, broth microdilution, LB broth, ~1.0 × 10^5 CFU/ml, 0.5 to 512.0 μg/ml, 37 °C, 24 h, OD600, performed three times); over 512 mg/L in assay [5] (Pseudomonas aeruginosa, CMCC(B)10104, broth microdilution, LB broth, ~1.0 × 10^5 CFU/ml, 0.5 to 512.0 μg/ml, 37 °C, 24 h, OD600, performed three times); 8 mg/L (≈ 18.9 µM) in assay [6] (Escherichia coli, CMCC(B) 44102, broth microdilution, LB broth, ~1.0 × 10^5 CFU/ml, 0.5 to 512.0 μg/ml, 37 °C, 24 h, OD600, performed three times).
Turning to `CC[C@H](C)[C@H](NC(=O)[C@H](CCCNC(=N)N)NC(=O)[C@H](CCCNC(=N)N)NC(=O)[C@H](CC(C)C)NC(=O)[C@@H](N)Cc1ccccc1)C(=O)N[C@@H](CCCNC(=N)N)C(=O)N[C@H](C(N)=O)C(C)C` [FLRRIRV-NH2] (H-FLRRIRV-NH2), the “MIC Staphylococcus aureus” value in assay [2] (CMCC(B)26003, 24 h) was found to be 128 mg/L (≈ 134 µM). In addition, the “MIC Listeria monocytogenes” value in assay [4] (ATCC 19115, 24 h) came to 128 mg/L (≈ 134 µM).
On to `CC[C@H](C)[C@H](NC(=O)[C@H](CCCNC(=N)N)NC(=O)[C@H](CCCNC(=N)N)NC(=O)[C@H](CC(C)C)NC(=O)[C@@H](N)Cc1ccccc1)C(=O)N[C@@H](CCCNC(=N)N)C(=O)N[C@H](C(=O)N[C@H](C(=O)N1CCC[C@H]1C(=O)N[C@@H](Cc1c[nH]c2ccccc12)C(=O)N[C@H](C(=O)N[C@@H](CC(N)=O)C(=O)N1CCC[C@H]1C(=O)N1CCC[C@H]1C(=O)N[C@@H](Cc1ccccc1)C(=O)N[C@@H](CC(C)C)C(=O)N[C@@H](CCC(N)=O)C(=O)N[C@@H](CCC(N)=O)C(=O)N[C@H](C(N)=O)[C@@H](C)O)C(C)C)[C@@H](C)O)C(C)C` [FLRRIRVTPWVNPPFLQQT-NH2] (H-FLRRIRVTPWVNPPFLQQT-NH2), for which the “MIC Staphylococcus aureus” value in assay [2] (CMCC(B)26003, 24 h) was 256 mg/L (≈ 108 µM). In addition, the “MIC Listeria monocytogenes” value in assay [4] (ATCC 19115, 24 h) was found to be 128 mg/L (≈ 54.1 µM).
In the case of `CC[C@H](C)[C@H](NC(=O)[C@H](CCCNC(=N)N)NC(=O)[C@H](CCCNC(=N)N)NC(=O)[C@H](Cc1c[nH]c2ccccc12)NC(=O)[C@@H](N)Cc1ccccc1)C(=O)N[C@@H](CCCNC(=N)N)C(=O)N[C@H](C(N)=O)C(C)C` [FWRRIRV-NH2] (H-FWRRIRV-NH2), the “MIC Staphylococcus aureus” value in assay [2] (CMCC(B)26003, 24 h) came to 64 mg/L (≈ 62.1 µM). For the same compound, the “MIC Bacillus subtilis” value in assay [3] (CMCC(B)63501, 24 h) stood at 128 mg/L (≈ 124 µM). In addition, the “MIC Listeria monocytogenes” value in assay [4] (ATCC 19115, 24 h) is 32 mg/L (≈ 31 µM).
For `CC[C@H](C)[C@H](NC(=O)[C@H](CCCNC(=N)N)NC(=O)[C@H](CCCNC(=N)N)NC(=O)[C@H](Cc1c[nH]c2ccccc12)NC(=O)[C@@H](N)Cc1ccccc1)C(=O)N[C@@H](CCCNC(=N)N)C(=O)N[C@H](C(=O)N[C@H](C(=O)N1CCC[C@H]1C(=O)N[C@H](C(=O)N[C@H](C(=O)N[C@@H](CC(N)=O)C(=O)N1CCC[C@H]1C(=O)N1CCC[C@H]1C(=O)N[C@@H](Cc1ccccc1)C(=O)N[C@@H](CC(C)C)C(=O)N[C@@H](CCC(N)=O)C(=O)N[C@@H](CCC(N)=O)C(=O)N[C@H](C(N)=O)[C@@H](C)O)C(C)C)C(C)C)[C@@H](C)O)C(C)C` [FWRRIRVTPVVNPPFLQQT-NH2] (H-FWRRIRVTPVVNPPFLQQT-NH2), the “MIC Staphylococcus aureus” value in assay [2] (CMCC(B)26003, 24 h) worked out at 256 mg/L (≈ 109 µM). Besides, the “MIC Listeria monocytogenes” value in assay [4] (ATCC 19115, 24 h) turned out to be 256 mg/L (≈ 109 µM).
As to `CC[C@H](C)[C@H](NC(=O)[C@H](CCCNC(=N)N)NC(=O)[C@H](CCCNC(=N)N)NC(=O)[C@H](Cc1c[nH]c2ccccc12)NC(=O)[C@@H](N)Cc1ccccc1)C(=O)N[C@@H](CCCNC(=N)N)C(=O)N[C@H](C(=O)N[C@H](C(=O)N1CCC[C@H]1C(=O)N[C@H](C(=O)N[C@H](C(=O)N[C@@H](CC(N)=O)C(=O)N1CCC[C@H]1C(=O)N[C@@H](Cc1c[nH]c2ccccc12)C(=O)N[C@@H](Cc1ccccc1)C(=O)N[C@@H](CC(C)C)C(=O)N[C@@H](CCC(N)=O)C(=O)N[C@@H](CCC(N)=O)C(=O)N[C@H](C(N)=O)[C@@H](C)O)C(C)C)C(C)C)[C@@H](C)O)C(C)C` [FWRRIRVTPVVNPWFLQQT-NH2] (H-FWRRIRVTPVVNPWFLQQT-NH2), in assay [2] (CMCC(B)26003, 24 h), the “MIC Staphylococcus aureus” value is 32 mg/L (≈ 13.1 µM). Besides, the “MIC Bacillus subtilis” value in assay [3] (CMCC(B)63501, 24 h) turned out to be 64 mg/L (≈ 26.2 µM). For the same compound, in assay [4] (ATCC 19115, 24 h), the “MIC Listeria monocytogenes” value was found to be 32 mg/L (≈ 13.1 µM). In addition, in assay [5] (CMCC(B)10104, 24 h), the “MIC Pseudomonas aeruginosa” value worked out at 256 mg/L (≈ 105 µM). Moreover, the “MIC Escherichia coli” value in assay [6] (CMCC(B) 44102, 24 h) amounted to 256 mg/L (≈ 105 µM).
With `CC[C@H](C)[C@H](NC(=O)[C@H](CCCNC(=N)N)NC(=O)[C@H](CCCNC(=N)N)NC(=O)[C@H](Cc1c[nH]c2ccccc12)NC(=O)[C@@H](N)Cc1ccccc1)C(=O)N[C@@H](CCCNC(=N)N)C(=O)N[C@H](C(=O)N[C@H](C(=O)N1CCC[C@H]1C(=O)N[C@@H](Cc1c[nH]c2ccccc12)C(=O)N[C@H](C(=O)N[C@@H](CC(N)=O)C(=O)N1CCC[C@H]1C(=O)N1CCC[C@H]1C(=O)N[C@@H](Cc1ccccc1)C(=O)N[C@@H](CC(C)C)C(=O)N[C@@H](CCC(N)=O)C(=O)N[C@@H](CCC(N)=O)C(=O)N[C@H](C(N)=O)[C@@H](C)O)C(C)C)[C@@H](C)O)C(C)C` [FWRRIRVTPWVNPPFLQQT-NH2] (H-FWRRIRVTPWVNPPFLQQT-NH2), the “MIC Staphylococcus aureus” value in assay [2] (CMCC(B)26003, 24 h) is 64 mg/L (≈ 26.2 µM). Further, the “MIC Bacillus subtilis” value in assay [3] (CMCC(B)63501, 24 h) was determined as 256 mg/L (≈ 105 µM). For the same compound, the “MIC Listeria monocytogenes” value in assay [4] (ATCC 19115, 24 h) amounted to 64 mg/L (≈ 26.2 µM).
Regarding `CC(C)C[C@H](NC(=O)[C@H](Cc1ccccc1)NC(=O)[C@@H]1CCCN1C(=O)[C@@H]1CCCN1C(=O)[C@H](CC(N)=O)NC(=O)[C@@H](NC(=O)[C@@H](NC(=O)[C@@H]1CCCN1C(=O)[C@@H](N)[C@@H](C)O)C(C)C)C(C)C)C(=O)N[C@@H](CCC(N)=O)C(=O)N[C@@H](CCC(N)=O)C(=O)N[C@H](C(N)=O)[C@@H](C)O` [TPVVNPPFLQQT-NH2, reference compound] (H-TPVVNPPFLQQT-NH2), the “MIC Listeria monocytogenes” value in assay [4] (ATCC 19115, 24 h) came out at 512 mg/L (≈ 382 µM).
As for FLRRIRVTPVVNPPFLQQT-NH2, the “MIC Enterococcus faecalis” value in assay [1] was “— (“—” indicates that the peptide is inactive at 512 μg/ml.)”. The “MIC Staphylococcus aureus” value in assay [2] (CMCC(B)26003, broth microdilution, LB broth, ~1.0 × 10^5 CFU/ml, 0.5 to 512.0 μg/ml, 37 °C, 24 h, OD600, performed three times) is “— (“—” indicates that the peptide is inactive at 512 μg/ml.)”. Moreover, the “MIC Bacillus subtilis” value in assay [3] (CMCC(B)63501, broth microdilution, LB broth, ~1.0 × 10^5 CFU/ml, 0.5 to 512.0 μg/ml, 37 °C, 24 h, OD600, performed three times) was “— (“—” indicates that the peptide is inactive at 512 μg/ml.)”. In assay [4] (ATCC 19115, broth microdilution, LB broth, ~1.0 × 10^5 CFU/ml, 0.5 to 512.0 μg/ml, 37 °C, 24 h, OD600, performed three times), the “MIC Listeria monocytogenes” value is “— (“—” indicates that the peptide is inactive at 512 μg/ml.)”. Besides, in assay [5] (CMCC(B)10104, broth microdilution, LB broth, ~1.0 × 10^5 CFU/ml, 0.5 to 512.0 μg/ml, 37 °C, 24 h, OD600, performed three times), the “MIC Pseudomonas aeruginosa” value was “— (“—” indicates that the peptide is inactive at 512 μg/ml.)”. In addition, in assay [6] (CMCC(B) 44102, broth microdilution, LB broth, ~1.0 × 10^5 CFU/ml, 0.5 to 512.0 μg/ml, 37 °C, 24 h, OD600, performed three times), the “MIC Escherichia coli” value is “— (“—” indicates that the peptide is inactive at 512 μg/ml.)”.
